Experimental findings from patent US10844141B2, “Process for obtaining polysaccharides from jatoba (Hymenea courbaril l ) seeds, cosmetic composition comprising said polysaccharides and uses thereof” (NATURA COSMÉTICOS S.A., priority 2008, dated 2020) are described below.

The test system of experiment [1] is human skin fibroblasts in primary culture. Kind of experiment: Procollagen potential / collagen synthesis by sirius red stain in culture supernatant. The format is cell-based. The note with it: TGF positive control, 96 hours; for Normalized Collagen (%) (increase in collagen synthesis): control = 0.00. As to the method: (§1) Assays were carried out to assess the potential of the polysaccharides obtained in accordance with the present invention in promoting cell proliferation (the increase in the number of cells in relation to a control group not treated with the active ingredient) by analyzing cell viability through neutral red staining. Another object of the assays was to assess the procollagen potential of active ingredients (collagen in excess produced by the cells treated with the active ingredient in relation to the untreated control cells), by detecting the collagen in the culture supernatant through the sirius red stain.
b) Whether or not the presence of the active ingredient induces the cells to produce more collagen per se. To this end, dermis-derived human fibroblasts are incubated with the […](TGF-β), known to induce collagen synthesis and secretion (positive control). Simultaneously, other fibroblasts under the same condition are incubated with the active ingredient being tested. The collagen is identified by the sirius red stain (picrosirius solution), which has affinity for procollagen and collagen molecules. The procollagen potential of each active ingredient is identified by the increase in optical density (absorbance 540 nm filter) measured after the dissolution of the pigments previously absorbed by the collagen present in the culture supernatants.

The test system is the same in experiment [2]. Put plainly: Cell proliferation by neutral red staining (cell viability). The format is cell-based. Conditions: TGF positive control, 96 hours of incubation, control = 100. As to the method: as §1
a) Whether or not the presence of a specific active ingredient in the cell culture, for one or more periods, results in an increase in the number of cells in relation to the control group (cells not treated with the same active ingredient). The number of cells is estimated as a function of the cell viability rate, which is monitored by the incubation of fibroblasts with the vital stain neutral red at the end of the assay period (96 h). This stain is incorporated into living cells so that the cell viability rate is given by the intensity of the stain absorbed by the cells in a directly proportional ratio. The colorimetric reading is carried out in a spectrophotometer, at the wavelength of 540 nm.

Several values for one entry are separate records, joined by “and”; a condition that tells them apart may be missing. Equal values may be shown once.

For tumor growth factor-β [TGF], the “Total Collagen ± standard deviation (optical density)” value in experiment [1] (control 0.152) is 0.224 ± 0.009 Abs. Also, the “Normalized Collagen (%) (increase in collagen synthesis)” value is listed as 98.10% in experiment [1] and 98.1% in experiment [1] (listed as TGF-b). Further, in experiment [1] (control = 100.00 (Table 2)), the “Collagen (%) after normalization by the viability index” value came out at 109.4%. Also, the “Normalized Collagen” value in experiment [1] (normalized by viability index, control = 100.00) turned out to be 198.10%. Besides, the “Cell Proliferation” value in experiment [2] was 136.00% and 148.1%.
